Reference: ChEMBL document CHEMBL3297720, “Synthesis and evaluation of N-alkyl-9-aminoacridines with antibacterial activity” (2014)
≈ marks a conversion by molar mass, not a printed value. Calls of active or inactive are those of the source. The rule behind the calls is not given here.

Experiments:
Staphylococcus aureus [1] = assay: Antibacterial activity against methicillin-resistant Staphylococcus aureus ATCC 43300 after 16 to 20 hrs by broth microdilution assay; assay type: functional
Staphylococcus aureus [2] = assay: Antibacterial activity against methicillin-resistant Staphylococcus aureus IDRL 6169 after 16 to 20 hrs by broth microdilution assay; assay type: functional
Staphylococcus aureus [3] = assay: Antibacterial activity against methicillin-sensitive Staphylococcus aureus […] 8545 after 16 to 20 hrs by broth microdilution assay; assay type: functional
Nucleic Acid = assay: Binding affinity to relaxed plasmid DNA (unknown origin) assessed as DNA intercalation at 4 to 100 uM after 10 mins by gel electrophoresis in presence of human topoisomerase 1; assay type: nucleic-acid assay

SMILES | MIC99 (Staphylococcus aureus [1]) [µM] | MIC99 (Staphylococcus aureus [2]) [µM] | MIC99 (Staphylococcus aureus [3]) [µM] | Activity (Nucleic Acid)
CCCCCCCCCCCCCCNc1c2ccccc2nc2ccccc12 | 3.07 (≈ 1.2 µg/mL) | 2.15 (≈ 0.84 µg/mL) | 2.98 (≈ 1.16 µg/mL) | –
CCCCCCCNc1c2ccccc2nc2ccccc12 | 24.5 (≈ 7.16 µg/mL) | 22.9 (≈ 6.68 µg/mL) | 27.5 (≈ 8.05 µg/mL) | –
CCCNc1c2ccccc2nc2ccccc12 | > 100 | > 100 | > 100 | Active
CCCCCCCCCCNc1c2ccccc2nc2ccccc12 | 2.19 (≈ 0.733 µg/mL) | 3.29 (≈ 1.1 µg/mL) | 2.61 (≈ 0.873 µg/mL) | inactive
CCCNc1c2ccccc2nc2cc(C(=O)N3CCN(C)CC3)ccc12 | > 100 | > 100 | > 100 | Active
CCCCCCCCCCCCCNc1c2ccccc2nc2ccccc12 | 3.04 (≈ 1.14 µg/mL) | 2.8 (≈ 1.05 µg/mL) | 2.61 (≈ 0.983 µg/mL) | –
CCCCCCCCCCCCCCCNc1c2ccccc2nc2ccccc12 | 6.1 (≈ 2.47 µg/mL) | 3.21 (≈ 1.3 µg/mL) | 5.69 (≈ 2.3 µg/mL) | –
CCCCNc1c2ccccc2nc2cc(C(=O)N3CCN(C)CC3)ccc12 | > 100 | > 100 | > 100 | –
CCCCCCNc1c2ccccc2nc2ccccc12 | 50.6 (≈ 14.1 µg/mL) | 46.9 (≈ 13.1 µg/mL) | > 100 | –
CCCCCCCCCNc1c2ccccc2nc2ccccc12 | 3.19 (≈ 1.02 µg/mL) | 3.59 (≈ 1.15 µg/mL) | 5.95 (≈ 1.91 µg/mL) | –
CCCCCCCCCCCCCCNc1c2ccccc2nc2cc(C(=O)N3CCN(C)CC3)ccc12 | 5.82 (≈ 3.01 µg/mL) | 6.13 (≈ 3.17 µg/mL) | 6.25 (≈ 3.23 µg/mL) | –
CCCCCCCCCCCNc1c2ccccc2nc2cc(C(=O)N3CCN(C)CC3)ccc12 | 3.61 (≈ 1.71 µg/mL) | 6.14 (≈ 2.91 µg/mL) | 6.23 (≈ 2.96 µg/mL) | –
CCCCCCCNc1c2ccccc2nc2cc(C(=O)N3CCN(C)CC3)ccc12 | > 100 | > 100 | > 100 | –
CCCCCCCCCCCNc1c2ccccc2nc2ccccc12 | 2.01 (≈ 0.701 µg/mL) | 2.73 (≈ 0.951 µg/mL) | 3.81 (≈ 1.33 µg/mL) | –
CCCCCCCCNc1c2ccccc2nc2cc(C(=O)N3CCN(C)CC3)ccc12 | > 100 | > 100 | > 100 | –
CCCCCCNc1c2ccccc2nc2cc(C(=O)N3CCN(C)CC3)ccc12 | > 100 | > 100 | > 100 | –
CCCCCNc1c2ccccc2nc2cc(C(=O)N3CCN(C)CC3)ccc12 | > 100 | > 100 | > 100 | –
CCCCCCCCCCNc1c2ccccc2nc2cc(C(=O)N3CCN(C)CC3)ccc12 | 12.2 (≈ 5.6 µg/mL) | 10.7 (≈ 4.95 µg/mL) | 12 (≈ 5.51 µg/mL) | inactive
CCCCCCCCCCCCCCCNc1c2ccccc2nc2cc(C(=O)N3CCN(C)CC3)ccc12 | 4.59 (≈ 2.44 µg/mL) | 8.59 (≈ 4.56 µg/mL) | 5.91 (≈ 3.14 µg/mL) | –
CCCCCCCCCCCCCNc1c2ccccc2nc2cc(C(=O)N3CCN(C)CC3)ccc12 | 2.91 (≈ 1.46 µg/mL) | 3.07 (≈ 1.54 µg/mL) | 3.57 (≈ 1.79 µg/mL) | –
CCCCCCCCCCCCNc1c2ccccc2nc2cc(C(=O)N3CCN(C)CC3)ccc12 | 6.28 (≈ 3.07 µg/mL) | 5.87 (≈ 2.87 µg/mL) | 4.8 (≈ 2.35 µg/mL) | –
CCCCCCCCNc1c2ccccc2nc2ccccc12 | 8.54 (≈ 2.62 µg/mL) | 10.8 (≈ 3.31 µg/mL) | 10.3 (≈ 3.14 µg/mL) | –
CCCCCCCCCNc1c2ccccc2nc2cc(C(=O)N3CCN(C)CC3)ccc12 | 22.7 (≈ 10.1 µg/mL) | 23.7 (≈ 10.6 µg/mL) | 35.5 (≈ 15.8 µg/mL) | –
CCCCCCCCCCCCCCCCNc1c2ccccc2nc2cc(C(=O)N3CCN(C)CC3)ccc12 | 6.23 (≈ 3.39 µg/mL) | 9.06 (≈ 4.94 µg/mL) | 11.6 (≈ 6.31 µg/mL) | –
CCCCNc1c2ccccc2nc2ccccc12 | > 100 | > 100 | > 100 | –
CCCCCNc1c2ccccc2nc2ccccc12 | > 100 | > 100 | > 100 | –
CCCCCCCCCCCCCCCCNc1c2ccccc2nc2ccccc12 | 24.7 (≈ 10.3 µg/mL) | 10.1 (≈ 4.25 µg/mL) | 26.2 (≈ 11 µg/mL) | –
CCCCCCCCCCCCNc1c2ccccc2nc2ccccc12 | 2.88 (≈ 1.04 µg/mL) | 2.73 (≈ 0.99 µg/mL) | 2.88 (≈ 1.04 µg/mL) | –
